Legend:
mSTING = mSTING (Mus musculus, UniProt Q3TBT3); experiment: Radiometric filtration binding competition assay, mSTING
hSTING-WT = hSTING-WT (Homo sapiens (Human), UniProt Q86WV6, H232R); experiment: Radiometric filtration binding competition assay, hSTING-WT
hSTING-R232 = hSTING-R232 (Homo sapiens (Human), UniProt Q86WV6, H232R); experiment: STING differential scanning fluorimetry (DSF) assay, WT human STING; settings: WT (R232) human STING aa140-379, net shift in melting temperature
STING protein = STING protein (Homo sapiens (Human), UniProt Q86WV6, H232R); experiment: Cell based reporter assay of IRF activation (IRF-luciferase), THP1-dual-KI R232; settings: read-out: THP1-dual-KI R232_IRF(Luciferase)_Activity Maximum measured (%)
Chain of STING protein (Q86WV6 whole entry H232R): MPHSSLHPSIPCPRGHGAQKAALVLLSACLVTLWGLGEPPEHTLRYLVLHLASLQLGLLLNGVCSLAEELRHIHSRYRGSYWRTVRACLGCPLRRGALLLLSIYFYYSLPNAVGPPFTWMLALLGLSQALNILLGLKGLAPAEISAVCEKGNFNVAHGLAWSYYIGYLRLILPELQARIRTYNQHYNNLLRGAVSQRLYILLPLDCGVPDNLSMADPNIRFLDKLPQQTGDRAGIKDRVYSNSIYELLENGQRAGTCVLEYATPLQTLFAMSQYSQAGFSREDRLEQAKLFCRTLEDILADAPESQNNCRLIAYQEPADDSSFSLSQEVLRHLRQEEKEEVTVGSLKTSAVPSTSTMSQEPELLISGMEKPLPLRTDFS

Chain of hSTING-WT (Q86WV6 140-379 H232R): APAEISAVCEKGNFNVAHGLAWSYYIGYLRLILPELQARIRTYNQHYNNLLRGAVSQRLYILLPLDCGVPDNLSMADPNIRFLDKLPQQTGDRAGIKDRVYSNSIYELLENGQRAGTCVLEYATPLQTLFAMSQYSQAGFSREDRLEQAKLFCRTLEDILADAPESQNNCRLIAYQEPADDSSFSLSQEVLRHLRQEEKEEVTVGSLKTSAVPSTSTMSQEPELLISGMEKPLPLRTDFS
Chain of hSTING-R232 (Q86WV6 140-379 H232R): as above

IC50 (mSTING) | IC50 (hSTING-WT) | WT_DSF_hSWAT Tm Shift (° C.) (hSTING-R232) | Emax (STING protein) | Compound
> 300 µM | > 300 µM | B (“B” = 0-2° C.) | < 5% | COc1cc(Cl)c(OC)c2c1c(=O)c1ccccc1n2CC(=O)O [Compound 313]
> 300 µM | > 300 µM | B (“B” = 0-2° C.) | < 5% | COc1c(Cl)c(O)cc2c(=O)c3ccccc3n(CC(=O)O)c12 [Compound 315]
20 to 100 µM | < 20 µM | D (“D” > 7° C.) | 25 to 50% | CC(C)Sc1c(Cl)ccc2c(=O)c3ccc(C(C)(C)C)cc3n(CC(=O)O)c12 [Compound 290]
< 20 µM | < 20 µM | D (“D” > 7° C.) | > 50% | COc1c(Cl)ccc2c(=O)c3ccc(Nc4ccccc4OC(F)(F)F)cc3n(CC(=O)O)c12 [Compound 286]
< 20 µM | 20 to 100 µM | D (“D” > 7° C.) | > 50% | CCSc1c(Cl)ccc2c(=O)c3ccc(C)cc3n(CC(=O)O)c12 [Compound 304]
> 300 µM | 100 to 300 µM | A (“A” < 0° C.) | < 5% | COc1c(Cl)ccc2c(=O)c3cc(N)c(C(C)C)cc3n(CC(=O)O)c12 [Compound 320]
20 to 100 µM | 20 to 100 µM | C (“C” = 2-7° C,) | < 5% | COc1c(Cl)ccc2c(=O)c3ccc(C(C)C)cc3n(CC(=O)NS(=O)(=O)C(F)(F)F)c12 [Compound 261]
> 300 µM | > 300 µM | A (“A” < 0° C.) | < 5% | C[C@H](O)COc1c(Cl)ccc2c(=O)c3ccccc3n(CC(=O)O)c12 [Compound 302]
20 to 100 µM | 100 to 300 µM | C (“C” = 2-7° C,) |  | O=C(O)Cn1c2cc(C3=CCC(O)CC3)ccc2c(=O)c2ccc(Cl)c(Cl)c21 (stereo not shown) [Compound 213]
20 to 100 µM | 20 to 100 µM | C (“C” = 2-7° C,) | > 50% | C=CCOc1c(Cl)ccc2c(=O)c3ccccc3n(CC(=O)O)c12 [Compound 273]
> 300 µM | 100 to 300 µM | B (“B” = 0-2° C.) | < 5% | C#CCOc1c(Cl)ccc2c(=O)c3ccccc3n(CC(=O)O)c12 [Compound 272]
20 to 100 µM | 20 to 100 µM | D (“D” > 7° C.) | > 50% | COc1c(Cl)ccc2c(=O)c3ccc(C4CCCOC4)cc3n(CC(=O)O)c12 (stereo not shown) [Compound 253]
> 300 µM | > 300 µM | B (“B” = 0-2° C.) | < 5% | COc1c(Cl)ccc2c(=O)c3cc(O)c(C(C)C)cc3n(CC(=O)O)c12 [Compound 317]
> 300 µM | > 300 µM | B (“B” = 0-2° C.) | < 5% | COc1c(Cl)c(N)cc2c(=O)c3ccccc3n(CC(=O)O)c12 [Compound 316]
 | 20 to 100 µM | C (“C” = 2-7° C,) | > 50% | C[C@@H]1CCCN1c1ccc2c(=O)c3ccc(Cl)c(Br)c3n(CC(=O)O)c2c1 [Compound 203]
 | 20 to 100 µM | A (“A” < 0° C.) | < 5% | Cc1ccc2c(=O)c3ccc(Cl)c(Cl)c3n(CC(=O)O)c2c1C [Compound 134]
20 to 100 µM | 20 to 100 µM | D (“D” > 7° C.) | > 50% | CSc1c(Cl)ccc2c(=O)c3ccc(C)cc3n(CC(=O)O)c12 [Compound 279]
< 20 µM | < 20 µM | D (“D” > 7° C.) | > 50% | CSc1c(Cl)ccc2c(=O)c3ccc(-c4ccc(O)cc4)cc3n(CC(=O)O)c12 [Compound 271]
 | 100 to 300 µM | C (“C” = 2-7° C,) | < 5% | CC(C)Sc1ccc2c(=O)c3ccc(Cl)c(Cl)c3n(CC(=O)O)c2c1 [Compound 149]
100 to 300 µM | 20 to 100 µM | C (“C” = 2-7° C,) | 5 to 25% | CCCCCCOc1c(Cl)ccc2c(=O)c3ccccc3n(CC(=O)O)c12 [Compound 303]
> 300 µM | > 300 µM | A (“A” < 0° C.) | < 5% | C[C@@H](Oc1c(Cl)ccc2c(=O)c3ccccc3n(CC(=O)O)c12)c1ccccc1 [Compound 296]
 | 20 to 100 µM | A (“A” < 0° C.) | < 5% | CC(C)c1ccc2c3ccc(Cl)c(Cl)c3n(CC(=O)O)c2c1 [Compound 210]
> 300 µM | > 300 µM | A (“A” < 0° C.) | < 5% | COc1c(Cl)ccc2c(=O)c3cc(N(C)C)c(C(C)C)cc3n(CC(=O)O)c12 [Compound 319]
 | 20 to 100 µM | D (“D” > 7° C.) | > 50% | CCOc1c(Cl)ccc2c(=O)c3ccc(C)cc3n(CC(=O)O)c12 [Compound 282]

IC50 (mSTING) | IC50 (hSTING-WT) | WT_DSF_hSWAT Tm Shift (° C.) (hSTING-R232) | Emax (STING protein) | Compound
 | > 300 µM | B (“B” = 0-2° C.) | < 5% | O=C(O)Cn1c2ccccc2c(=O)c2ccc(Cl)c(Oc3ccccc3)c21 [Compound 287]
> 300 µM | > 300 µM | B (“B” = 0-2° C.) | 5 to 25% | CCOc1c(Cl)ccc2c(=O)c3ccc(C)cc3n(CC(=O)OC)c12 [Compound 322]
> 300 µM | > 300 µM | B (“B” = 0-2° C.) | 5 to 25% | CCOC(=O)Cn1c2cc(C)ccc2c(=O)c2ccc(Cl)c(OCC)c21 [Compound 321]
 | 20 to 100 µM | C (“C” = 2-7° C,) | > 50% | CNc1ccc2c(=O)c3ccc(Cl)c(OC)c3n(CC(=O)O)c2c1 [Compound 299]
 | > 300 µM | B (“B” = 0-2° C.) | < 5% | COc1ccc2c(=O)c3ccccc3n(CC(=O)O)c2c1OC [Compound 265]
 | 20 to 100 µM | D (“D” > 7° C.) | > 50% | COc1c(Cl)ccc2c(=O)c3ccc(-c4ccncc4)cc3n(CC(=O)O)c12 [Compound 278]
> 300 µM | 100 to 300 µM | A (“A” < 0° C.) | < 5% | C[C@H](Oc1c(Cl)ccc2c(=O)c3ccccc3n(CC(=O)O)c12)c1ccccc1 [Compound 295]
100 to 300 µM | 20 to 100 µM | A (“A” < 0° C.) | < 5% | O=C(O)Cn1c2ccccc2c(=O)c2ccc(Cl)c(Oc3nccc4ccccc34)c21 [Compound 243]
 | 100 to 300 µM | C (“C” = 2-7° C,) | 5 to 25% | O=C(O)Cn1c2cc(N3CCCC3)ccc2c(=O)c2ccc(Cl)c(Br)c21 [Compound 201]
< 20 µM | 20 to 100 µM | C (“C” = 2-7° C,) | < 5% | O=C(O)Cn1c2cc(Cl)ccc2c(=O)c2ccc(Nc3ccccc3)cc21 [Compound 301]
 | 100 to 300 µM | C (“C” = 2-7° C,) | 25 to 50% | COc1c(Cl)ccc2c(=O)c3ccc(C)cc3n(CC(=O)NC#N)c12 [Compound 338]
 | 100 to 300 µM | C (“C” = 2-7° C,) | > 50% | COc1c(Cl)ccc2c(=O)c3ccc(C)cc3n(CC(=O)NS(C)(=O)=O)c12 [Compound 347]
 | 20 to 100 µM | D (“D” > 7° C.) | > 50% | COc1c(Cl)ccc2c(=O)c3ccc(C4=CCOCC4)cc3n(CC(=O)O)c12 [Compound 254]
100 to 300 µM | 100 to 300 µM | C (“C” = 2-7° C,) |  | O=C(O)Cn1c2cc(N3CCCCC3)ccc2c(=O)c2ccc(Cl)c(Br)c21 [Compound 198]
 | > 300 µM | C (“C” = 2-7° C,) | 5 to 25% | CCCOc1c(Cl)ccc2c(=O)c3ccccc3n(CC(=O)O)c12 [Compound 284]
> 300 µM | > 300 µM | B (“B” = 0-2° C.) | < 5% | [N-]=[N+]=NCc1c(Cl)ccc2c(=O)c3ccccc3n(CC(=O)O)c12 [Compound 305]
 | < 20 µM | D (“D” > 7° C.) | > 50% | COc1c(Cl)ccc2c(=O)c3ccc(-c4cccc(C)c4)cc3n(CC(=O)O)c12 [Compound 238]
 | < 20 µM | D (“D” > 7° C.) | > 50% | COc1c(Cl)ccc2c(=O)c3ccc(-c4ccoc4)cc3n(CC(=O)O)c12 [Compound 277]
20 to 100 µM | 100 to 300 µM | C (“C” = 2-7° C,) |  | O=C(O)Cn1c2ccccc2c(=O)c2ccc(Cl)c(-c3ccccc3)c21 [Compound 256]
20 to 100 µM | 20 to 100 µM | C (“C” = 2-7° C,) | 25 to 50% | O=C(O)Cn1c2cc(-c3ccoc3)ccc2c(=O)c2ccc(Cl)c(Cl)c21 [Compound 183]
> 300 µM | 20 to 100 µM | A (“A” < 0° C.) |  | Cc1c(C(C)C)ccc2c(=O)c3ccc(Cl)c(Cl)c3n(CC(=O)O)c12 [Compound 193]
 | 100 to 300 µM | C (“C” = 2-7° C,) | > 50% | COc1c(Cl)ccc2c(=O)c3ccc(C)cc3n(CC(=O)NS(=O)(=O)C3CC3)c12 [Compound 348]
 | 20 to 100 µM | D (“D” > 7° C.) | < 5% | O=C(O)Cn1c2cc(Nc3cnc(Cl)cn3)ccc2c(=O)c2ccc(Cl)c(Cl)c21 [Compound 258]
